Data reported in PubChem BioAssay AID1322 (NMMLSC, 2008).
The source made the active and inactive calls. How the calls were made is not given here.

Biological target: Bcl-2-like protein 1 (Homo sapiens) (UniProt Q07817)
Experiment: Bcl-XL binding to Bim peptide disruption – biochemical, multiplexed, bead flow cytometry, human Bcl-XL, dose response (AID 1322); on inhibition: test concentration not given here
Conditions: Bead-based flow cytometry, MCF; for inhibition: hits give high values

Chain of Bcl-2-like protein 1 (Homo sapiens) (Q07817 whole entry, looked up): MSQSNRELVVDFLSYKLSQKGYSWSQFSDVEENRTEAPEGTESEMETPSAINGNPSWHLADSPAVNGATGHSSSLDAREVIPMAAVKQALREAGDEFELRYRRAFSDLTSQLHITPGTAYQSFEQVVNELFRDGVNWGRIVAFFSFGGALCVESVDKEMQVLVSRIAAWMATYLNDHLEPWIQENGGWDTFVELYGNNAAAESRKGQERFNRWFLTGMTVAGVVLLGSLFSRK

| SMILES | inhibition | outcome |
| --- | --- | --- |
| Nc1ccc(C2=Nc3cccc4cccc(c34)N2)cc1 | inactive | – |
| Cc1ccc(/C=C2/NC(=O)N(Cc3ccccc3)C2=O)o1 | – | inactive |
| Cc1c(N=C2C=CC(=O)c3ccccc32)c(=O)n(-c2ccccc2)n1C | inactive | – |
| CC1(C)Cc2c(ccc3ccccc23)/C(=C/C(=O)N2CCCCC2)N1 | inactive | – |
| CN(C)c1ccc(C(=O)/C=C/c2ccc(Br)cc2)cc1 | inactive | – |
| COC(=O)c1sc(NC(=O)c2ccc(Cn3cc(Cl)cn3)o2)c(C#N)c1C | inactive | – |
| Cc1ccc(NC(=O)CSc2nc3ccccc3c(=O)n2CCCN2CCCCC2)cc1Cl | inactive | – |
| c1ccc(C2=Nc3cccc4cccc(c34)N2)cc1 | inactive | – |
| CC(C)(C)OC(=O)N1CCN(C(=O)[C@H](Cc2ccc(O)cc2)n2cc(CCO)nn2)CC1 | inactive | – |
| Cc1ccc(CC(=O)OCCNC(=O)c2cccnc2)cc1 | inactive | – |
| O=C(CNC(=O)c1ccc(S(=O)(=O)N2CCCC2)cc1)N/N=C/c1ccc(Cl)cc1Cl | – | inactive |
| CSc1nnc2ccc(-c3cccs3)nn12 | inactive | – |
| Cc1cccc(N2CCN(C(=S)Nc3ccc4nc(N5CCN(C)CC5)cc(C)c4c3)CC2)c1C | inactive | – |
| O=C(Nc1ccccn1)c1cc2ccccc2o1 | inactive | – |
| Nc1ccc(-c2cn3cccnc3n2)cc1 | – | inactive |
| Cc1ccc(C)c(Oc2ncnc(N)c2[N+](=O)[O-])c1 | inactive | – |
| O=C(c1ccc(CNS(=O)(=O)c2ccc(Br)cc2)cc1)N1CCCC1 | inactive | – |
| CCSc1ncc(Cl)c(C(=O)Nc2sc3c(c2C(=O)NCc2cccnc2)CCCC3)n1 | inactive | – |
| CCOc1ccc2nc(SCC(=O)N3c4ccccc4Sc4ccccc43)c(C#N)cc2c1 | inactive | – |
| CCOC(=O)CSC1=NC(=O)/C(=C/c2ccc(OC)cc2)S1 | inactive | – |
| Cc1cc(C(=O)NCCCN(C)C)c2ccccc2n1 | inactive | – |
| Cc1cccc(N=C2NC(=O)/C(=C/C=C/c3ccco3)S2)c1C | inactive | – |
| CCc1cccc(NC(=O)COc2ccccc2)c1 | inactive | – |
| COc1ccc2c3c(cccc13)N(C)N=C2C | inactive | – |
| CCCCOc1ccc(Cc2c(Cl)nc(SC)nc2N2CCOCC2)cc1 | inactive | – |
| CCN1CCN(CC(=O)c2c[nH]c3ccc(C)cc23)CC1 | inactive | – |

| SMILES | inhibition | outcome |
| --- | --- | --- |
| O=C1CSc2ccc(C(=O)Nc3cccc(S(=O)(=O)Nc4ccc(Br)cc4)c3)cc2N1 | inactive | – |
| OC(COc1ccc2ccccc2c1)CN1CCCC1 (centres undefined) | inactive | – |
| COc1ccc(CN(C)CC(=O)NC(C)c2ccccc2)c(OC)c1 (centres undefined) | inactive | – |
| Cc1cc2nc(/C(C#N)=C/c3ccncc3)[nH]c2cc1C | inactive | – |
| Cc1ccc(NC(=O)c2cc(S(=O)(=O)NCCC3=CCCCC3)ccc2F)cc1F | – | inactive |
| Cc1nc(=S)c2ccccc2[nH]1 | inactive | – |
| CC(C)(C)NC(=O)COc1ccc(CNc2ccc3[nH]c(=O)[nH]c3c2)cc1 | inactive | – |
| O=C1CCc2cc(S(=O)(=O)NCCCC(=O)N3CCN(Cc4ccc5c(c4)OCO5)CC3)ccc2N1 | – | inactive |
| CNC(=S)N(Cc1cccs1)Cc1cc2ccc(OC)cc2[nH]c1=O | inactive | – |
| CC1(C)SC(=S)N(NC(=O)Nc2ccccc2)C1N(O)C(=O)Nc1cccc2ccccc12 (centres undefined) | inactive | – |
| Cc1cc(C)c(C)c(S(=O)(=O)N2CCN(CC(=O)NC(=O)NCc3ccccc3)CC2)c1C | inactive | – |
| Cc1c(Cc2ccccc2)sc(N)c1C(N)=O | inactive | – |
| COc1cc(C2Nc3cccc4cccc(c34)N2)ccc1OC(C)=O | inactive | – |
| COc1cc(/C=N/NC(=O)c2ccc([N+](=O)[O-])cc2Cl)cc(Br)c1O | inactive | – |
| O=C(NCCCN1CCN(CCCNC(=O)c2cc([N+](=O)[O-])ccc2Cl)CC1)c1cc([N+](=O)[O-])ccc1Cl | inactive | – |
| Cc1occc1C(=O)NNC(=S)NCc1ccccc1 | inactive | – |
| CCn1c(SCC(=O)Nc2ccccc2-c2ccccc2)nnc1-c1ccoc1C | inactive | – |
| CC(C(=O)Nc1ccc([N+](=O)[O-])cc1)N1CCN(C/C=C/c2ccccc2)CC1 (centres undefined) | inactive | – |
| CCOC(=O)c1nc(Nc2ccc(N3CCC(C)CC3)cc2)c2ccccc2n1 | – | inactive |
| COC(=O)c1ccc(C)c(NC(=O)CCNC(=O)c2ccc([N+](=O)[O-])cc2)c1 | inactive | – |
| COc1cc(NC(=O)c2ccc3c(c2)OCO3)ccc1NC(=O)c1ccco1 | inactive | – |
| CN(C)C(=O)N1CCC(C(=O)NC2CCCCCCC2)CC1 | inactive | – |
| Clc1ccc2c(N/N=C/c3cccc(Br)c3)ccnc2c1 | inactive | – |
| Cc1cnnn1-c1ccc(C(=O)CCl)cc1 | inactive | – |
| COC(=O)c1c(NC(=O)COc2ncnc3ccccc23)sc(C)c1C | inactive | – |
| CC(C)CN1C(=O)/C(=C/c2ccco2)NC1=S | inactive | – |

| SMILES | inhibition | outcome |
| --- | --- | --- |
| O=C(Nc1cccc(C(F)(F)F)c1)c1ccc2nc(-c3ccco3)c(-c3ccco3)nc2c1 | inactive | – |
| COc1ccccc1Oc1ccc2c(c1)C(=O)N(c1ccccc1)C2=O | inactive | – |
| Cc1ccc(/C=C/C(=O)c2ccccc(=O)c2O)cc1C | inactive | – |
| COC(=O)c1[nH]c2ccccc2c1NC(=O)c1ccccc1[N+](=O)[O-] | – | inactive |
| Nc1cccc(-c2cn3cccnc3n2)c1 | – | inactive |
| O=C(NCCO)c1ccc2nc(-c3ccco3)c(-c3ccco3)nc2c1 | inactive | – |
| COc1ccccc1C1=Nc2cccc3cccc(c23)N1 | inactive | – |
| N/C(Cc1ccc(Cl)c(Cl)c1)=N\OC(=O)c1cccs1 | inactive | – |
| COc1ccc2cc(CN(CCc3ccccc3)Cc3nnnn3CC3CCCO3)c(=O)[nH]c2c1 (centres undefined) | inactive | – |
| Cc1cc(C)nc(/N=c2/ssnc2Cl)c1 | inactive | – |
| O=C(/C=C/c1c(F)cccc1Cl)Nc1ccncc1 | inactive | – |
| Cc1ccc(C(=O)N/N=C2/NC(=O)CC(C(=O)Nc3ccccc3)S2)cc1 (centres undefined) | inactive | – |
| Cc1ccc(/C=C/C(=O)Nc2ccc([N+](=O)[O-])c(NC(=O)/C=C/c3ccc(C)o3)c2)o1 | inactive | – |
| Cc1ccc(SCCC(=O)Nc2ccc(Br)c(C)c2)cc1 | inactive | – |
| Cc1ccc(-c2ccc(CCC(=O)O)n2NC(=O)c2cccs2)cc1 | inactive | – |
| Cc1ccc(/C=N/NC(=O)CSc2nnc(-c3ccc(Cl)cc3)n2-c2ccccc2)o1 | inactive | – |
| CCOC(=O)c1nc(Nc2ccc(Nc3ccccc3)cc2)c2ccccc2n1 | inactive | – |
| CCCCc1ccc(NC(=S)NCc2ccc(OC)cc2)cc1 | – | inactive |
| CC1=C2C(CCS2(=O)=O)CC2(C1)C(=O)OC(C)(C)OC2=O (centres undefined) | inactive | – |
| Cc1nnc(Sc2cc(NCCCO)c([N+](=O)[O-])c3nonc23)s1 | inactive | – |
| c1ccc2c(N3CCOCC3)nc(N3CCOCC3)nc2c1 | inactive | – |
| O=C(Nc1cccc(Cl)c1)Nc1ccc(Cl)cn1 | inactive | – |
| Cc1ccc(-c2cc(C(=O)N3CCN(c4ncccn4)CC3)c3cc(Br)ccc3n2)o1 | inactive | – |
| O=C(O)c1ccc(NS(=O)(=O)c2ccc3c(c2)C(=O)c2ccccc2C3=O)cc1 | inactive | – |
| Clc1ccc2c(N/N=C/c3ccccc3Br)ccnc2c1 | inactive | – |
| CN(Cc1ccccc1)C(=O)c1[nH]cnc1C(=O)N[C@@H](CCCCNC(=O)OC(C)(C)C)C(=O)OC(C)(C)C | inactive | – |

| SMILES | inhibition | outcome |
| --- | --- | --- |
| CCOc1ncccc1C(=O)OC(C)C(=O)Nc1ccc(CC)cc1 (centres undefined) | – | inactive |
| O=C(N/N=C/c1cccnc1)c1cccc(S(=O)(=O)N2CCCC2)c1 | – | inactive |
| Cc1cc2nn(-c3cccc4ccccc34)nc2cc1N | inactive | – |
| CCN1CCN(c2ccc(NC(=O)c3cccc4ncccc34)cc2)CC1 | inactive | – |
| CCN(C(=O)COC(=O)c1cc(-c2ccc(C)o2)nc2ccccc12)C1CCS(=O)(=O)C1 (centres undefined) | inactive | – |
| CC(C(=O)Nc1cc([N+](=O)[O-])ccc1Cl)N1CCN(c2ccc(O)cc2)CC1 (centres undefined) | – | inactive |
| S=C(NCCc1ccccc1)NCCc1ccccc1 | inactive | – |
| O=C(Nc1ccccc1)Nc1ccc2ncoc2c1 | inactive | – |
| Cn1c(N)c(C(=O)COC(=O)c2cc(-c3ccco3)nc3ccccc23)c(=O)n(Cc2ccccc2)c1=O | inactive | – |
| CN(C)c1ncc(C2=C(Cl)C(=O)C(N3CCCC3)=C(Cl)C2=O)s1 | inactive | – |
| c1ccc(-c2nc(N3CCOCC3)s[n+]2-c2ccccc2)cc1 | inactive | – |
| COCCN=c1scc(-c2cccs2)n1/N=C/c1ccc(O)c(O)c1O | inactive | – |
| COc1cc(/C=C2\S/C(=N/S(=O)(=O)c3ccc(C)cc3)NC2=O)c([N+](=O)[O-])cc1OC | inactive | – |
| O=C(CNC(=O)c1ccco1)NCC(=O)OCc1ccccc1Br | inactive | – |
| S=C(Nc1ccc(N2CCOCC2)cc1)Nc1ccc2nc(-c3ccco3)c(-c3ccco3)nc2c1 | inactive | – |
| Cc1cccc(N2C(S)=C(C#N)C(=O)NC2c2cccs2)c1 (centres undefined) | inactive | – |
| CCOC(=O)C1=C(CP(=O)(c2ccccc2)c2ccccc2)NC(=O)NC1c1ccc(OC)cc1 (centres undefined) | inactive | – |
| CCN(CC)C(=O)COC(=O)c1cc(-c2ccco2)nc2ccccc12 | – | inactive |
| Cc1cc(N/C(=N/S(=O)(=O)c2cc(F)ccc2F)c2ccccc2)n(-c2ccccc2)n1 | – | inactive |
| CCOC(=O)C1CCCN(c2ncnc3c2cnn3-c2cccc(C)c2)C1 (centres undefined) | inactive | – |
| CCn1cc(C=C2C(=O)c3ccccc3C2=O)c2ccccc21 | inactive | – |
| CCOc1cc(NC(=S)NC)c(OCC)cc1NC(=O)c1ccc(OC)cc1 | – | inactive |
| O=C(CSc1ccc(-c2ccccc2)nn1)NCc1ccco1 | inactive | – |
| COc1cc(N=c2ssnc2Cl)c(OC)cc1Cl | inactive | – |
| Cc1[nH]c2ccccc2c1C(=O)COC(=O)c1c(-c2c(F)cccc2Cl)noc1C | inactive | – |
| O=C(Cc1ccccc1)OCCNC(=O)c1cccnc1 | inactive | – |
